Patent US20090306373A1, “4,7-DIHYDROTHIENO[2,3-B]PYRIDINE COMPOUNDS AND PHARMACEUTICAL COMPOSITIONS” (priority 2005, published 2009)

System: alpha-MyHC
Test: alpha-MyHC cytoblot in neonatal rat ventricular myocytes (NRVM)
Format: cell-based
Conditions: for Max Plateau: fitted maximum, percent fraction of low control (vehicle), in %; for EC50: concentration giving 50% of maximum response
Method: In vitro activity of each compound is measured using the alpha-MyHC cytoblot process. Briefly, neonatal rat ventricular myocytes (NRVM) at 120,000 cells/ml in HyQ DME/High modified culture media supplemented with 10% charcoal/dextran treated FBS, 0.1% Nutridoma-SP, 1:100 MEM non-essential amino acids, 1:50 MEM amino acids solution w/o L-Gln, 1 mM sodium pyruvate and 1:100 P/S/G, are plated on gelatin coated sterile 384-well plates (Costar 3712) at 6,000 cells per well. Cells are incubated overnight at 37° C. in 5% CO2 100% humidity. Following overnight growth the media is changed to HyQ DME/High modified culture media supplemented with 0.3% Nutridoma-SP, 1:100 MEM non-essential amino acids, 1:50 MEM amino acids solution w/o L-Gln, 1 mM sodium pyruvate and 1:100 P/S/G. Cells are then dosed with serial dilutions of each compound in DMSO. Each concentration in the dose range is dosed in quadruplicate. Dosing is done in such a way so that the final DMSO concentration was 0.44%. Compound dilutions are 3-fold with the final top concentration of 10 uM. […] Following dosing, the cells are incubated for 72 hours at 37° C. in 5% CO2 100% humidity and then processed with the cytoblot method. Briefly, cell media is aspirated and cell monolayers washed with PBS and fixed with 100% methanol for 30 minutes. Fixed cells are then blocked with PBS, 0.05% Tween-20, 1% BSA, for 1 hour. Following blocking, cells are incubated with primary alpha-MyHC-specific antibody (1:30 dilution of BA-G5 hybridoma conditioned media, ATCC HB276) for 1 hour. Following incubation with the primary antibody, cells are washed with PBS, 0.05% Tween-20, 1% BSA and incubated with secondary antibody (1:1000 dilution, goat-anti-mouse HRP, Southern Biotech, 1031-05) for 1 hour. Following incubation with the secondary antibody, wells are washed and incubated in SuperSignal, West Dura HRP-luminescence substrate for 30 seconds under shaking at room temperature. Luminescence is measured using a Packard Fusion plate reader. […] RLU values are converted into percent fraction of low control and dose responses are fitted to a sigmoidal 4-parameter equation (XLFit, IDBS) where the EC50 and Max Plateau values were extracted. […] Max Plateau is the […] maximum value determined by the dose response fit.

SMILES | Max Plateau (Table 2, 72 hours) | Max Plateau (Table 1, 72 hours) | further results
CCC1=C(C(=O)OC)C(c2cccc(Cl)c2F)c2c(sc(C(=O)c3ccc(Cl)c(Cl)c3)c2N)N1 (stereo not drawn) [Compound 155] | 224.86 | – | –
CC(=O)C1=C(C)Nc2sc(C(=O)c3cccc(Br)c3)c(N)c2C1c1ccccc1 (stereo not drawn) [Compound 6] | – | 289.34 ± 70.69 | –
CCC(=O)C1=C(CC)Nc2sc(C(=O)c3ccc(Cl)c(Cl)c3)c(N)c2C1c1ccccc1C (stereo not drawn) [Compound 56] | – | 293.74 ± 50.82 | –
CC(=O)C1=C(C)Nc2sc(C(=O)c3ccc(Cl)c(Cl)c3)c(N)c2C1c1ccccc1 (stereo not drawn) [Compound 2] | – | 207.74 ± 23.00 | –
CCC(=O)C1=C(CC)Nc2sc(C(=O)c3ccccc3)c(N)c2C1c1cc(F)cc(F)c1 (stereo not drawn) [Compound 105] | – | 273.18 ± 37.33 | –
CCC(=O)C1=C(CC)Nc2sc(C(=O)c3ccccc3)c(N)c2C1c1ccccc1F (stereo not drawn) [Compound 78] | – | 269.77 ± 35.30 | –
CCC(=O)C1=C(CC)Nc2sc(C(=O)c3cccc([N+](=O)[O-])c3)c(N)c2C1c1ccccc1 (stereo not drawn) [Compound 96] | – | 254.87 ± 72.67 | –
CCC1=C(C(=O)OC(C)CC)C(c2ccccc2F)c2c(sc(C(=O)c3ccc(Cl)c(Cl)c3)c2N)N1 (single isomer, unassigned) [Compound 163] | 224.85 | – | –
COc1cccc(C2C(C(C)=O)=C(C)Nc3sc(C(=O)c4ccccc4)c(N)c32)c1 (stereo not drawn) [Compound 15] | – | 126.50 ± 24.27 | –
CCC(=O)C1=C(CC)Nc2sc(C(=O)c3ccc(F)c(F)c3)c(N)c2C1c1cc(F)cc(F)c1 (stereo not drawn) [Compound 101] | – | 230.49 ± 17.13 | –
CCC(=O)C1=C(CC)Nc2sc(C(=O)c3ccccc3)c(N)c2C1c1c(F)cccc1F (stereo not drawn) [Compound 69] | – | 221.36 ± 15.94 | –
CCC(=O)C1=C(CC)Nc2sc(C(=O)c3ccccc3)c(N)c2C1c1cccnc1 (stereo not drawn) [Compound 68] | – | 175.88 ± 14.54 | –
CCOC(=O)C1=C(CC)Nc2sc(C(=O)c3cc(F)cc(F)c3)c(N)c2C1c1ccccc1 (stereo not drawn) [Compound 151] | 273.61 | – | –
CCC(=O)C1=C(CC)Nc2sc(C(=O)c3ccc(Cl)c(Cl)c3)c(N)c2C1c1ccccc1Cl (stereo not drawn) [Compound 53] | – | 259.43 ± 26.30 | –
CC(=O)C1=C(C)Nc2sc(C(=O)c3cccc(F)c3)c(N)c2C1c1ccccc1 (stereo not drawn) [Compound 61] | – | 230.65 ± 55.61 | –
CC(=O)C1=C(C)Nc2sc(C(=O)c3ccc(Cl)c(Cl)c3)c(N)c2C1c1ccc(F)cc1 (stereo not drawn) [Compound 50] | – | 190.79 ± 27.94 | –
CCC1=C(C(=O)OC)C(c2ccccc2)c2c(sc(C(=O)c3cccc([N+](=O)[O-])c3)c2N)N1 (stereo not drawn) [Compound 139] | 281.08 | – | –
CCC(=O)C1=C(CC)Nc2sc(C(=O)c3ccc(Cl)c(Cl)c3)c(N)c2C1c1ccnc(F)c1 (stereo not drawn) [Compound 98] | – | 255.02 ± 32.01 | –
CC(=O)C1=C(C)Nc2sc(C(=O)c3ccc(Cl)c(Cl)c3)c(N)c2C1c1ccc(O)cc1Cl (stereo not drawn) [Compound 29] | – | 281.88 ± 32.78 | –
CCC(=O)C1=C(CC)Nc2sc(C(=O)c3ccc(Cl)c(Cl)c3)c(N)c2C1c1ccc2ccccc2c1 (stereo not drawn) [Compound 88] | – | 113.45 ± 11.92 | –
CCOC(=O)C1=C(CC)Nc2sc(C(=O)c3cc(Cl)ccc3Cl)c(N)c2C1c1ccccc1 (stereo not drawn) [Compound 146] | 213.49 | – | –
CCC1=C(C(=O)OC)C(c2c(F)cccc2F)c2c(sc(C(=O)c3ccc(Cl)c(Cl)c3)c2N)N1 (stereo not drawn) [Compound 137] | 213.90 | – | –
CCCC(=O)C1=C(CCC)Nc2sc(C(=O)c3ccc(F)c(F)c3)c(N)c2C1c1ccccc1 (stereo not drawn) [Compound 95] | – | 147.01 ± 6.43 | –
CC(=O)C1=C(C)Nc2sc(C(=O)c3ccccc3Cl)c(N)c2C1c1ccccc1 (stereo not drawn) [Compound 57] | – | 246.00 ± 16.33 | –
CCC(=O)C1=C(CC)Nc2sc(C(=O)c3ccccc3Br)c(N)c2C1c1ccccc1 (stereo not drawn) [Compound 106] | – | 244.21 ± 29.53 | –

SMILES | Max Plateau (Table 2, 72 hours) | Max Plateau (Table 1, 72 hours) | further results
CC(=O)C1=C(C)N(C)c2sc(C(=O)c3ccccc3)c(N)c2C1c1ccccc1 (stereo not drawn) [Compound 208, 1-(3-amino-2-benzoyl-6,7 dimethyl-4-phenyl-4,7 dihydro-thieno[2,3-b]pyridin-5-yl)-ethanone] | – | – | EC50 (Rattus norvegicus, Ventricular myocyte, Table 5, 72 hours): 3430 nM
CCC(=O)C1=C(CC)Nc2sc(C(=O)c3cc(C(C)(C)C)c(O)c(C(C)(C)C)c3)c(N)c2C1c1ccccc1 (stereo not drawn) [Compound 90] | – | 300.00 ± 0.00 | –
CC(=O)C1=C(C)Nc2sc(C(=O)c3ccc(Cl)c(Cl)c3)c(N)c2C1c1ccc(Cl)cc1Cl (stereo not drawn) [Compound 52] | – | 122.73 ± 20.55 | –
CCC(=O)C1=C(CC)Nc2sc(C(=O)c3ccc(Cl)c(Cl)c3)c(N)c2C1c1ccccc1F (racemic) [Compound 39, 1-[3-amino-2-(3,4-dichloro-benzoyl)-6-ethyl-4-(2-fluoro-phenyl)-4,7-dihydro-thieno[2,3b]pyridin-5-yl]-propan-1-one] | – | 272.61 ± 37.32 | EC50 (Table 1, 72 hours): 17.1 nM
CCC1=C(C(=O)OC)C(c2cc(F)cc(F)c2)c2c(sc(C(=O)c3ccc(F)c(F)c3)c2N)N1 (stereo not drawn) [Compound 170] | 262.16 | – | –
CCC(=O)C1=C(CC)Nc2sc(C(=O)c3ccc(F)cc3)c(N)c2C1c1ccccc1 (stereo not drawn) [Compound 79] | – | 241.90 ± 15.79 | –
CCC(=O)C1=C(CC)Nc2sc(C(=O)c3cccc(Cl)c3)c(N)c2C1c1ccccc1 (stereo not drawn) [Compound 66] | – | 306.19 ± 54.21 | –
CCC1=C(C(=O)OC)C(c2ccnc(F)c2)c2c(sc(C(=O)c3cccc(Cl)c3)c2N)N1 (racemic) [Compound 175] | 289.91 | – | –
CCC(=O)C1=C(CC)Nc2sc(C(=O)c3ccc(Cl)cc3Cl)c(N)c2C1c1ccccc1 (stereo not drawn) [Compound 70] | – | 191.97 ± 13.09 | –
CCC(=O)C1=C(CC)Nc2sc(C(=O)c3ccc(Cl)c(Cl)c3)c(N)c2C1c1ccccc1[N+](=O)[O-] (stereo not drawn) [Compound 59] | – | 152.77 ± 11.42 | –
CCC(=O)C1=C(CC)Nc2sc(C(=O)c3ccccc3F)c(N)c2C1c1ccccc1 (stereo not drawn) [Compound 67] | – | 256.12 ± 53.66 | –
CCOC(=O)C1=C(CC)Nc2sc(C(=O)c3ccc(Cl)c(Cl)c3)c(N)c2C1c1ccncc1Cl (stereo not drawn) [Compound 169] | 261.04 | – | –
CC(=O)C1=C(C)Nc2sc(C(=O)c3ccc(Cl)c(Cl)c3)c(N)c2C1c1ccc(C)cc1 (stereo not drawn) [Compound 45] | – | 108.63 ± 9.14 | –
CCC1=C(C(=O)OC)C(c2ccccc2F)c2c(sc(C(=O)c3cccc([N+](=O)[O-])c3)c2N)N1 (stereo not drawn) [Compound 140] | 266.63 | – | –
CCC1=C(C(=O)OC2CCCCC2)C(c2ccccc2)c2c(sc(C(=O)c3ccc(Cl)c(Cl)c3)c2N)N1 (stereo not drawn) [Compound 160] | 186.95 | – | –
COC(=O)C1=C(C2CC2)Nc2sc(C(=O)c3ccc(Cl)c(Cl)c3)c(N)c2C1c1ccccc1 (stereo not drawn) [Compound 133] | 180.24 | – | –
CCOC(=O)C1=C(CC)Nc2sc(C(=O)c3cc(C(F)(F)F)cc(C(F)(F)F)c3)c(N)c2C1c1ccccc1 (stereo not drawn) [Compound 149] | 207.18 | – | –
CCNC(=O)C1=C(C)Nc2sc(C(=O)c3ccc(Cl)c(Cl)c3)c(N)c2C1c1ccccc1 (racemic) [Compound 195] | – | – | Max Plateau (Table 3, 72 hours): 126.67 ± 23.09
CCCC(=O)C1=C(CCC)Nc2sc(C(=O)c3cc(Cl)ccc3Cl)c(N)c2C1c1ccccc1F (stereo not drawn) [Compound 92] | – | 189.00 ± 25.40 | –
CCOC(=O)C1=C(CC)Nc2sc(C(=O)c3ccc(Cl)cc3Cl)c(N)c2C1c1ccccc1 (stereo not drawn) [Compound 145] | 224.48 | – | –
CC(=O)C1=C(C)Nc2sc(C(=O)c3ccccc3)c(N)c2C1c1ccc(Cl)cc1 (stereo not drawn) [Compound 21] | – | 193.20 ± 49.26 | –
COc1ccccc1C1C(C(C)=O)=C(C)Nc2sc(C(=O)c3ccccc3)c(N)c21 (stereo not drawn) [Compound 18] | – | 215.25 ± 44.08 | –
CCC(=O)C1=C(CC)Nc2sc(C(=O)c3ccc(Cl)c(Cl)c3)c(N)c2C1c1cccc(F)c1 (stereo not drawn) [Compound 84] | – | 242.72 ± 19.34 | –
COC(=O)C1=C(C(C)C)Nc2sc(C(=O)c3ccc(Cl)c(Cl)c3)c(N)c2C1c1cccc([N+](=O)[O-])c1 (stereo not drawn) [Compound 134] | 98.33 | – | –
COC(=O)C1=C(CCc2ccccc2)Nc2sc(C(=O)c3ccc(Cl)c(Cl)c3)c(N)c2C1c1ccccc1F (stereo not drawn) [Compound 154] | 125.87 | – | –
